From patent publication US20210115018A1, “PIPERIDINE COMPOUNDS AS COVALENT MENIN INHIBITORS” (THE REGENTS OF THE UNIVERSITY OF MICHIGAN, priority 2018, published 2021)

Key:
menin protein = molecular target: T1, menin protein (Homo sapiens, UniProt O00255); test: Fluorescence polarization (FP) competitive binding assay, menin binding affinity; conditions: FP competition with FAM-MM2 probe 2 nM, menin 4 nM, 30 minutes room temperature
T1 sequence (O00255 1-610): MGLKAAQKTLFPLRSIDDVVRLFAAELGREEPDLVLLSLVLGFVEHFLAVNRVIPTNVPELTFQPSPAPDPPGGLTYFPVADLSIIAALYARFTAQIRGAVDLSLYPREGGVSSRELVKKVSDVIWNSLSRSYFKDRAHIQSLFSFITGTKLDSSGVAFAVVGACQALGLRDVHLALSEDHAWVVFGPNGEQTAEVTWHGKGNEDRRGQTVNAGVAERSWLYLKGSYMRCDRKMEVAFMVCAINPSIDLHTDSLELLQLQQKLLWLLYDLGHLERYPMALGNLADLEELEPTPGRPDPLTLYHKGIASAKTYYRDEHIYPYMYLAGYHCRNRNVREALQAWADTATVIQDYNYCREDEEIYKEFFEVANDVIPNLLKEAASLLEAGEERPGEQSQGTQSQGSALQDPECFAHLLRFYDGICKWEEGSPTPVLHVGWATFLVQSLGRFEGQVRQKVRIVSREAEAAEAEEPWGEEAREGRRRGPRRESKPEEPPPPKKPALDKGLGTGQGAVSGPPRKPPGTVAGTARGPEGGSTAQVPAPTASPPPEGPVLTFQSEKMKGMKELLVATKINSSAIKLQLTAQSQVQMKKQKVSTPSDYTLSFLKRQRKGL
How it was run: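 Competitive FP with FAM-labeled MLL1 peptide probe FAM-MM2 (2 nM) and menin (4 nM) in PBS, 0.02% bovine γ-globulin, 4% DMSO, 0.01% Triton X-100. After 30 min at room temperature, mP read at 485/530 nm; IC50 from nonlinear regression against probe-only and complex-only controls.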

MOLM13 = test: 7-day proliferation assay (WST-8), cell growth inhibition; assay type: cell-based; conditions: Homo sapiens, MOLM-13, 168 h, MOLM13 cells, 7 days
How it was run: (§1)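 Cells seeded at 2,000-3,000/well were exposed to serially diluted compound for 7 days at 37° C., 5% CO2. Viability was read by WST-8 absorbance at 450 nm after 1-2 h color development; readings normalized to DMSO-treated cells, IC50 by four-parameter nonlinear regression.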

MV4-11 = test: as above; assay type: cell-based; conditions: Homo sapiens, MV4-11, 168 h, MV4-11 cells, 7 days
How it was run: as §1

IC50 (menin protein) [nM]	IC50 (MOLM13) [nM]	IC50 (MV4-11) [nM]	Compound
5	< 50	< 50	C=CC(=O)N1CCOC[C@@H](S(=O)(=O)c2ccc(N3CC(CN4CCC([C@@](CN5CCC5)(c5cccc(F)c5)[C@H]5CCC[C@@H]5NC(=O)OC)CC4)(OC)C3)c(F)c2)C1 [compound 230]
4	< 500	< 500	CC#CC(=O)N1CCCC[C@@H](S(=O)(=O)c2ccc(N3CC(F)(CN4CCC([C@@](CN5CCC5)(c5cccc(F)c5)[C@H]5CCC[C@@H]5NC(=O)OC)CC4)C3)cc2)C1 [compound 231]
3	< 500	< 100	CC#CC(=O)N1CCCC[C@@H](S(=O)(=O)c2ccc(N3CC(CN4CCC([C@@](CN5CCC5)(c5cccc(F)c5)[C@H]5CCC[C@@H]5NC(=O)OC)CC4)(OC)C3)c(F)c2)C1 [compound 232]
3	< 500	< 100	C/C=C/S(=O)(=O)N1CCCC[C@@H](S(=O)(=O)c2ccc(N3CC(F)(CN4CCC([C@@](CN5CCC5)(c5cccc(F)c5)[C@H]5CCC[C@@H]5NC(=O)OC)CC4)C3)cc2)C1 [compound 233]
